Data on 25 compounds can be found in patent US8883782B2, “Spiro-tetracyclic ring compounds as beta-secretase modulators and methods of use” (Amgen Inc., priority 2010, dated 2014).

pIC50: −log10 of the molar value. Read-outs that look alike come from different tables or passages of the source.

In assay [1] the test system is Aβ40 in conditioned medium of cells stably expressing Amyloid Precursor Protein (APP). Put plainly: In vitro BACE cell-based assay (Aβ40 in conditioned medium, sandwich ELISA). The conditions noted are these: for pIC50: read-out: HEK cell assay; for IC50: HEK293, read-out: HEK cell assay (uM). As to the method: In Vitro BACE Cell-Based Assay
The cell-based assay measures inhibition or reduction of Aβ40 in conditioned medium of test compound treated cells expressing amyloid precursor protein.
Cells stably expressing Amyloid Precursor Protein (APP) were plated at a density of 40K cells/well in 96 well plates (Costar). The cells were cultivated for 24 hours at 37° C. and 5% CO2 in DMEM supplemented with 10% FBS. The test compounds were then added to cells in 10-point dose response concentrations with the starting concentration being either 100 μM or 10 μM. The compounds were diluted from stock solutions in DMSO and the final DMSO concentration of the test compounds on cells was 0.1%. […] The IC50 of the compound was calculated from the percent of control or percent inhibition of Aβ 40 as a function of the concentration of the test compound.
The sandwich ELISA to detect Aβ 40 was performed in 96 well microtiter plates, which were pre-treated with goat anti-rabbit IgG (Pierce). The capture and detecting antibody pair that were used to detect Aβ 40 from cell supernatants were affinity purified pAb40 (Biosource) and biotinylated 6E10 (Signet Labs Inc.), respectively. The optimal concentration for the pAb40 antibody was 3 μg/ml in Superblock/TBS (Pierce) that was supplemented with 0.05% Tween 20 (Sigma).
Cellular supernatants were incubated with the capture antibody for 3 h at 4° C., followed by 3 wash steps in TBS-tween (0.05%). The detecting antibody incubation was for 2 h at 4° C., again followed by the wash steps as described previously. The final readout of the ELISA is Time-Resolved Fluorescence (counts per minute) using Delfia reagents Streptavidin-Europium and Enhancement solutions (Perkin Elmer) and the Victor 2 multilabel counter (Perkin Elmer).

In assay [2] the target is Beta Secretase enzyme (BACE) (Homo sapiens, UniProt P56817). The assay is described as follows: In vitro enzymatic BACE FRET (fluorescence resonance energy transfer) assay. The assay is classed as biochemical. The note with it: average IC50, enzyme assay; read-out: BACE 1 FRET assay. As for the experimental part: In Vitro Enzymatic Bace Fret (Fluorescence Resonance Energy Transfer) Assay (Enzyme Assay Data in the Example Table I)
The assay buffer used in this screen is 0.05 M acetate, pH 4.2, 10% DMSO final, 100 uM genapol (which is a nonionic detergent, below its Critical Micelle Concentration). […] This assay is effectively started by the addition of FRET substrate (50 nM) and the combination is incubated for one hour. The FRET assay is terminated with by addition of Tris buffer, which raises the pH to neutrality, and the fluorescence is determined. The FRET substrate is a peptide with commercially available fluorophore and quencher, on opposite sides of the BACE cleavage site.

The mark [3] stands for this setting: Homo sapiens, HEK293, average IC50.
[4] abbreviates: Homo sapiens, HEK293, average IC50, HEK cells.

Chain of Beta Secretase enzyme (BACE) (P56817 46-501, species assumed): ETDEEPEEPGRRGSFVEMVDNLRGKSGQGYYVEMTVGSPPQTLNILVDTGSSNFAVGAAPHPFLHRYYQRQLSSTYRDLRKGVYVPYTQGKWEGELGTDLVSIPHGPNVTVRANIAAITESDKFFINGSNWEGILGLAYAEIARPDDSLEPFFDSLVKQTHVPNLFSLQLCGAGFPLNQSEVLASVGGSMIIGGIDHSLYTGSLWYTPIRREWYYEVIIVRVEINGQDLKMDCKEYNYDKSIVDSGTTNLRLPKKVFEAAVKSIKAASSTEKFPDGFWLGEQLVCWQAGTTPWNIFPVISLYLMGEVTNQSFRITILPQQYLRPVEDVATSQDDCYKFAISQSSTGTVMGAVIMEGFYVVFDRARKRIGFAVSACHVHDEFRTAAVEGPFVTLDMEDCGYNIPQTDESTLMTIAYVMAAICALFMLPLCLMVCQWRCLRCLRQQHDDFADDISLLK

As to `NC1=N[C@@]2(CO1)c1cc(-c3cccnc3F)ccc1Oc1c2cc(C2=COCCC2)nc1F` [Example 807, (5S)-3-(3,4-dihydro-2H-pyran-5-yl)-1-fluoro-7-(2-fluoro-3-pyridinyl)spiro[chromeno[2,3-c]pyridine-5,4′-[1,3]oxazol]-2′-amine], the pIC50 in assay [1] (setting [3]) is 5.51.
Take “(4S)-7′-bromo-4′-fluoro-2′-methoxyspiro[1,3-thiazole-4,9′-xanthen]-2-amine [Example 218]”: the pIC50 in assay [1] (average IC50) was 6.89.
For `NC1=N[C@@]2(CO1)c1cc(-c3cccc(F)n3)ccc1Oc1cnc(-c3ccnc(F)c3)cc12` [Example 632, (5S)-3-(2-fluoro-4-pyridinyl)-7-(6-fluoro-2-pyridinyl)spiro[chromeno[2,3-c]pyridine-5,4′-[1,3]oxazol]-2′-amine], the pIC50 in assay [1] (setting [4]) is 6.48.
For the compound `NC1=N[C@@]2(CO1)c1cc(-c3cccnc3F)ccc1Oc1cnc(N3CC[C@@H](F)C3)cc12` [Example 416, (5S)-7-(2-fluoro-3-pyridinyl)-3-((3R)-3-fluoro-1-pyrrolidinyl)spiro[chromeno[2,3-c]pyridine-5,4′-[1,3]oxazol]-2′-amine], the IC50 in assay [1] (Homo sapiens) is 0.0049 µM.
For the compound `NC1=N[C@@]2(CO1)c1cc(-c3cncc(C#CCO)c3)ccc1Oc1cnc(C3=CCOCC3)cc12` [Example 826, 3-(5-((5S)-2′-amino-3-(3,6-dihydro-2H-pyran-4-yl)spiro[chromeno[2,3-c]pyridine-5,4′-[1,3]oxazol]-7-yl)-3-pyridinyl)-2-propyn-1-ol], the pIC50 in assay [1] (setting [3]) is 8.70.
`NC1=N[C@@]2(CS1)c1cc(Br)ccc1Oc1cnc(Cl)cc12` [Example 588, (5S)-7-bromo-3-chlorospiro[chromeno[2,3-c]pyridine-5,4′-[1,3]thiazol]-2′-amine]: the pIC50 in assay [1] (setting [4]) is 5.00.
For the compound `NC1=N[C@@]2(CO1)c1cc(-c3cccnc3F)ccc1Oc1ncc(C3=CCOCC3)cc12` [Example 460, (5S)-3-(3,6-dihydro-2H-pyran-4-yl)-7-(2-fluoro-3-pyridinyl)spiro[chromeno[2,3-b]pyridine-5,4′-[1,3]oxazol]-2′-amine], the pIC50 in assay [1] (setting [4]) is 8.19.
Regarding “(4R)-4′-fluoro-2′-methoxy-7′-(5-pyrimidinyl)spiro[1,3-thiazole-4,9′-xanthen]-2-amine [Example 217]”, in assay [1] (average IC50), the pIC50 was 5.80.
Take `NC1=N[C@@]2(CO1)c1cc(-c3cccnc3F)ccc1Oc1c(F)cc(N3CCOCC3)cc12` [Example 139, (S)-4′-fluoro-7′-(2-fluoropyridin-3-yl)-2′-morpholino-5H-spiro[oxazole-4,9′-xanthen]-2-amine]: the pIC50 in assay [1] (setting [3]) was 8.28.
As for `NC1=N[C@@]2(CS1)c1cc(-c3cccnc3F)ccc1Oc1cnc(-c3ccnc(F)c3)cc12` [Example 589, (5S)-7-(2-fluoro-3-pyridinyl)-3-(2-fluoro-4-pyridinyl)spiro[chromeno[2,3-c]pyridine-5,4′-[1,3]thiazol]-2′-amine], the pIC50 in assay [1] (setting [4]) was 7.41.
Consider `NC1=N[C@@]2(CO1)c1cc(-c3cccnc3F)ccc1Oc1c(F)cc(-c3ccccn3)cc12` [Example 196, (4S)-4′-fluoro-7′-(2-fluoro-3-pyridinyl)-2′-(2-pyridinyl)spiro[1,3-oxazole-4,9′-xanthen]-2-amine], for which the pIC50 in assay [1] (setting [3]) is 8.01.
Consider `NC1=N[C@@]2(CS1)c1cc(Br)ccc1Oc1cnc(Cl)cc12` [Example 994, (5S)-7-bromo-3-chlorospiro[chromeno[2,3-c]pyridine-5,4′-[1,3]thiazol]-2′-amine], for which the pIC50 in assay [1] (setting [3]) is not above 5.00.
As to `CC(C)(C)C#Cc1cnc2c(c1)[C@]1(COC(N)=N1)c1cc(-c3cncnc3)c(F)cc1O2` [Example 340, (5S)-3-(3,3-dimethyl-1-butyn-1-yl)-8-fluoro-7-(5-pyrimidinyl)spiro[chromeno[2,3-b]pyridine-5,4′-[1,3]oxazol]-2′-amine], the pIC50 in assay [1] (average IC50) was 7.07.
In the case of `NC1=N[C@@]2(CO1)c1cc(-c3cccnc3F)ccc1Oc1c(F)cc(N3CC[C@@H](F)C3)cc12` [Example 279, (4S)-4′-fluoro-7′-(2-fluoro-3-pyridinyl)-2′-((3R)-3-fluoro-1-pyrrolidinyl)spiro[1,3-oxazole-4,9′-xanthen]-2-amine], the pIC50 in assay [1] (setting [3]) was 8.07.
Take `NC1=N[C@@]2(CS1)c1cc(-c3cccnc3F)ccc1Oc1cnc(Cl)cc12` [Example 594, (5S)-3-chloro-7-(2-fluoro-3-pyridinyl)spiro[chromeno[2,3-c]pyridine-5,4′-[1,3]thiazol]-2′-amine]: the pIC50 in assay [2] is 7.27.
As to `NC1=N[C@@]2(CO1)c1cc(-c3cccnc3F)ccc1Oc1c(F)cc(C3=CCCOC3)cc12` [Example 129, (S)-2′-(5,6-dihydro-2H-pyran-3-yl)-4′-fluoro-7′-(2-fluoropyridin-3-yl)-5H-spiro[oxazole-4,9′-xanthen]-2-amine], in assay [1] (setting [3]), the pIC50 is 8.49.
For the compound “(4S)-4′-fluoro-7′-(2-fluoro-3-pyridinyl)-2′-(6-methyl-3-pyridinyl)spiro[1,3-oxazole-4,9′-xanthen]-2-amine [Example 223]”, in assay [2], the pIC50 was 8.70.
On the same count and under the same terms, under `CC(C)(C#N)COc1cc(F)c2c(c1)[C@]1(COC(N)=N1)c1cc(-c3c(F)ccnc3F)ccc1O2` [Example 566, 3-(((4S)-2-amino-7′-(2,4-difluoro-3-pyridinyl)-4′-fluorospiro[1,3-oxazole-4,9′-xanthen]-2′-yl)oxy)-2,2-dimethylpropanenitrile] stands 8.70; under `NC1=N[C@@]2(CO1)c1cc(-c3cccc(Cl)c3)ccc1Oc1cnc(N3CCC(F)(F)C3)cc12` [Example 432, (5S)-7-(3-chlorophenyl)-3-(3,3-difluoro-1-pyrrolidinyl)spiro[chromeno[2,3-c]pyridine-5,4′-[1,3]oxazol]-2′-amine], 8.70.
With `NC1=N[C@]2(CS1)c1cc(-c3cccnc3F)ccc1Oc1c2cc(-c2ccnc(F)c2)nc1F` [Example 997, (5R)-1-fluoro-7-(2-fluoro-3-pyridinyl)-3-(2-fluoro-4-pyridinyl)spiro[chromeno[2,3-c]pyridine-5,4′-[1,3]thiazol]-2′-amine], the pIC50 in assay [1] (setting [3]) was 5.93.
The same measure, in the same setting: then `NC1=N[C@@]2(CO1)c1cc(-c3cccnc3F)ccc1Oc1c(F)cc(N3CC[C@H](F)C3)cc12` [Example 280, (S)-4′-fluoro-7′-(2-fluoropyridin-3-yl)-2′-((S)-3-fluoropyrrolidin-1-yl)-5H-spiro[oxazole-4,9′-xanthen]-2-amine], with 8.16.
For `NC1=N[C@@]2(CO1)c1cc(-c3cccnc3F)ccc1Oc1cnc(N3CC[C@H](F)C3)cc12` [Example 133, (S)-7-(2-fluoropyridin-3-yl)-3-((S)-3-fluoropyrrolidin-1-yl)-5′H-spiro[chromeno[2,3-c]pyridine-5,4′-oxazol]-2′-amine], the IC50 in assay [1] (Homo sapiens) was determined as 0.0096 µM.
As to “2′-amino-9-fluoro-7-((3-methyl-3-oxetanyl)ethynyl)spiro[chromeno[2,3-c]pyridine-5,4′-[1,3]oxazol]-3-yl)benzonitrile [Example 694]”, the pIC50 in assay [1] (average IC50, HEK cells) was 5.96.
With “(4S)-4′-fluoro-2′-methoxy-7′-(5-pyrimidinyl)spiro[1,3-thiazole-4,9′-xanthen]-2-amine [Example 216]”, in assay [1] (average IC50), the pIC50 was 7.35.
Take `NC1=N[C@@]2(CO1)c1cc(-c3cccnc3F)ccc1Oc1c(F)cc([C@@H]3CCOC3)cc12` [Example 300, (4S)-4′-fluoro-7′-(2-fluoro-3-pyridinyl)-2′-((3S)-tetrahydro-3-furanyl)spiro[1,3-oxazole-4,9′-xanthen]-2-amine]: the pIC50 in assay [2] was 8.64.
